Data taken from patent US9302999B2, “Substituted triazoles as herbicides” (E. I. DU PONT DE NEMOURS AND COMPANY, priority 2012, dated 2016).

Key:
Format in all cases: in vivo
[1] = tested on: foxtail, green (green foxtail, Setaria viridis); test: Test C pre-/postemergence: foxtail, green
Summary of the method: (§1)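 Visual injury scored 0–100 (100 = complete control) against untreated controls after 13–15 greenhouse days. Surfactant-containing solvent formulations applied either to soil after sowing (loam/sand) or over 1- to 4-leaf plants, 2–18 cm tall.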

[2] = tested on: surinam grass (Brachiaria decumbens); test: Test C pre-/postemergence: surinam grass
Summary of the method: as §1

[3] = tested on: goosegrass (Eleusine indica); test: Test C pre-/postemergence: goosegrass
Summary of the method: as §1

[4] = tested on: canarygrass (Phalaris minor); test: Test C postemergence: canarygrass
Summary of the method: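 Seedlings are raised in pots of peat-based medium to 2–18 cm (1- to 4-leaf stage). The formulated compound is then applied postemergence. Plants stay in the greenhouse for 13 to 15 days and are rated visually against controls, where 0 means no effect and 100 complete control.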

[5] = tested on: blackgrass (Alopecurus myosuroides); test: Test D pre-/postemergence: blackgrass; details: Postemergence; for Plant response rating, Blackgrass: scale 0 to 100
Summary of the method: (§2)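 We sprayed chemicals in a surfactant-containing solvent onto silt loam at planting (preemergence) and onto 1- to 4-leaf seedlings (postemergence). Fourteen to 21 days later, each species was rated visually from 0 to 100 relative to controls.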

[6] = tested on: chickweed (common chickweed, Stellaria media); test: Test D pre-/postemergence: chickweed; details: Postemergence; for Plant response rating, Chickweed: scale 0 to 100
Summary of the method: as §2

[7] = tested on: bromegrass, downy (downy bromegrass, Bromus tectorum); test: Test D pre-/postemergence: bromegrass, downy; details: Postemergence; for Plant response rating, Bromegrass, Downy: scale 0 to 100
Summary of the method: as §2

[8] = tested on: deadnettle (henbit deadnettle, Lamium amplexicaule); test: Test D pre-/postemergence: deadnettle; details: Postemergence; for Plant response rating, Deadnettle: scale 0 to 100
Summary of the method: as §2

[9] = tested on: lambsquarters (Chenopodium album); test: Test D pre-/postemergence: lambsquarters; details: Postemergence; for Plant response rating, Lambsquarters: scale 0 to 100
Summary of the method: as §2

[10] = tested on: barley, winter (winter barley, Hordeum vulgare); test: Test D pre-/postemergence: barley, winter; details: Postemergence; for Plant response rating, Barley, Winter: scale 0 to 100
Summary of the method: as §2

[11] = Postemergence, 31 g ai/ha, scale 0 to 100 (0 no effect, 100 complete control)
[12] = Postemergence, 62 g ai/ha, scale 0 to 100 (0 no effect, 100 complete control)
[13] = Postemergence, 125 g ai/ha, scale 0 to 100, 0 no effect, 100 complete control
[14] = Postemergence, 250 g ai/ha, scale 0 to 100
[15] = Preemergence, 31 g ai/ha, scale of 0 to 100, 0 is no effect, 100 is complete control
[16] = Preemergence, 62 g ai/ha, scale of 0 to 100, 0 is no effect, 100 is complete control
[17] = Preemergence, 125 g ai/ha, scale 0 to 100, 0 no effect, 100 complete control
[18] = Preemergence, 250 g ai/ha, scale 0 to 100, 0 no effect, 100 complete control
[19] = 31 g ai/ha, scale 0 to 100 (0 no effect, 100 complete control)
[20] = 62 g ai/ha, scale 0 to 100 (0 no effect, 100 complete control)
[21] = 125 g ai/ha, scale 0 to 100, 0 no effect, 100 complete control

Cc1nn(-c2ccc(F)c(F)c2)nc1Oc1ccnc(C(F)(F)F)c1 [Compound 145]
5: Plant response rating, Blackgrass ([5]; 8 g ai/ha) | Plant response rating: Bromegrass, Downy [7, 19] | Plant response rating, Bromegrass, Downy ([7]; 8 g ai/ha) | Plant response rating, Bromegrass, Downy ([7]; 16 g ai/ha) | Plant response rating: Barley, Winter [10, 19] | Plant response rating, Barley, Winter ([10]; 16 g ai/ha)
30: Plant response rating, Surinam Grass [2, 12] | Plant response rating: Blackgrass [5, 21]
0: Plant response rating, Deadnettle ([8]; 8 g ai/ha) | Plant response rating, Barley, Winter ([10]; 8 g ai/ha)
70: Plant response rating, Goosegrass [3, 13] | Plant response rating: Deadnettle [8, 19]
25: Plant response rating, Surinam Grass [2, 11] | Plant response rating, Goosegrass [3, 11] | Plant response rating: Blackgrass [5, 20] | Plant response rating, Lambsquarters ([9]; 16 g ai/ha)
20: Plant response rating: Blackgrass [5, 19] | Plant response rating, Blackgrass ([5]; 16 g ai/ha) | Plant response rating: Barley, Winter [10, 21]
40: Plant response rating, Canarygrass [4, 20] | Plant response rating, Chickweed ([6]; 8 g ai/ha)
98: Plant response rating, Foxtail, Green [1, 11] | Plant response rating, Goosegrass [3, 15]
100: Plant response rating, Foxtail, Green [1, 12] | Plant response rating, Foxtail, Green [1, 13] | Plant response rating, Foxtail, Green [1, 14] | Plant response rating, Surinam Grass [2, 17] | Plant response rating, Surinam Grass [2, 18] | Plant response rating, Goosegrass [3, 16] | Plant response rating, Goosegrass [3, 17] | Plant response rating, Goosegrass [3, 18] | Plant response rating: Deadnettle [8, 21] | Plant response rating: Lambsquarters [9, 20] | Plant response rating: Lambsquarters [9, 21]
60: Plant response rating, Surinam Grass [2, 13] | Plant response rating: Chickweed [6, 19]
80: Plant response rating, Goosegrass [3, 14] | Plant response rating: Chickweed [6, 20]
50: Plant response rating, Canarygrass [4, 21] | Plant response rating, Deadnettle ([8]; 16 g ai/ha)
55: Plant response rating, Surinam Grass [2, 16]
10: Plant response rating: Bromegrass, Downy [7, 20] | Plant response rating: Bromegrass, Downy [7, 21] | Plant response rating, Lambsquarters ([9]; 8 g ai/ha) | Plant response rating: Barley, Winter [10, 20]
75: Plant response rating, Surinam Grass [2, 14] | Plant response rating, Chickweed ([6]; 16 g ai/ha)
35: Plant response rating, Surinam Grass [2, 15] | Plant response rating, Goosegrass [3, 12]
90: Plant response rating, Foxtail, Green [1, 15] | Plant response rating, Foxtail, Green [1, 16] | Plant response rating, Foxtail, Green [1, 17] | Plant response rating, Foxtail, Green [1, 18] | Plant response rating, Canarygrass ([4]; 250 g ai/ha, scale 0 to 100) | Plant response rating: Chickweed [6, 21] | Plant response rating: Deadnettle [8, 20] | Plant response rating: Lambsquarters [9, 19]
15: Plant response rating, Canarygrass [4, 19]
